In PMC3319563 (PLoS ONE, 2012):

How the values were obtained:
AtuGSTH1-1 [1] = biological target: T1, AtuGSTH1-1 (Agrobacterium fabrum, UniProt A9CFJ9, R187A); details: read-out: Km, (mM) (CDNB) / Km, (mM) (CuOOH); co-substrate GSH
T1 construct: gene Atu3701

AtuGSTH1-1 [2] = biological target: T2, AtuGSTH1-1 (Agrobacterium fabrum, UniProt A9CFJ9); test: steady-state kinetics, GST assay; format: biochemical; details: co-substrate GSH; 0.1 M potassium phosphate pH 6.5, 37 °C; read-out: Κm
T2 construct: gene Atu3701; homodimer by crystal symmetry
T2 sequence (A9CFJ9 1-230): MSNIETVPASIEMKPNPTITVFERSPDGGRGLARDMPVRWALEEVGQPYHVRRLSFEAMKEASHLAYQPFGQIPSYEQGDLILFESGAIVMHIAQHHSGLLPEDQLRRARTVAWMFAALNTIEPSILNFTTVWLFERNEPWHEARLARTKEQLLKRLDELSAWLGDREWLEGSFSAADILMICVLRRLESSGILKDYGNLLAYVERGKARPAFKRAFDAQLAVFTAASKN
Description: steady-state kinetics, GST assay on AtuGSTH1-1

AtuGSTH1-1 [3] = biological target: T3, AtuGSTH1-1 (Agrobacterium fabrum, UniProt A9CFJ9, F22A); details: read-out: Km, (mM) (CDNB) / Km, (mM) (CuOOH); co-substrate GSH
T3 construct: gene Atu3701

AtuGSTH1-1 [4] = biological target: T4, AtuGSTH1-1 (Agrobacterium fabrum, UniProt A9CFJ9, S25A); details: read-out: Km, (mM) (CDNB) / Km, (mM) (CuOOH); co-substrate GSH
T4 construct: gene Atu3701

AtuGSTH1-1 [5] = biological target: T2, AtuGSTH1-1; test: steady-state kinetics, thioltransferase assay; format: biochemical; details: co-substrate GSH; 0.1 M potassium phosphate pH 6.5, 37 °C; read-out: Κm
Description: steady-state kinetics, thioltransferase assay on AtuGSTH1-1

[6] = substrate: CC(C)(OO)c1ccccc1; test: steady-state kinetics, GSH-dependent peroxidase assay; format: biochemical, Agrobacterium fabrum; details: co-substrate GSH, 0.1 M potassium phosphate pH 6.5, 37 °C
[7] = substrate: CC(C)(C)OO; test: as above; format: biochemical, Agrobacterium fabrum; details: co-substrate GSH, 0.1 M potassium phosphate pH 6.5, 37 °C

Molecule: O=[N+]([O-])c1ccc(Cl)c([N+](=O)[O-])c1 [CDNB, 1-chloro-2,4-dinitrobenzene]
- Km (AtuGSTH1-1 [1]): 7.1 ± 0.76 mM
- Km (AtuGSTH1-1 [2]): 1500 ± 90 µM
- Km (AtuGSTH1-1 [3]): 3.2 ± 0.39 mM
- Km (AtuGSTH1-1 [4]): 1.9 ± 0.18 mM

Molecule: OCCSSCCO [HEDS]
- Km (AtuGSTH1-1 [5]): 4100 ± 120 µM

B1: AtuGSTH1-1 (Agrobacterium fabrum str. C58) (protein)
chain: MSNIETVPASIEMKPNPTITVFERSPDGGRGLARDMPVRWALEEVGQPYHVRRLSFEAMKEASHLAYQPFGQIPSYEQGDLILFESGAIVMHIAQHHSGLLPEDQLRRARTVAWMFAALNTIEPSILNFTTVWLFERNEPWHEARLARTKEQLLKRLDELSAWLGDREWLEGSFSAADILMICVLRRLESSGILKDYGNLLAYVERGKARPAFKRAFDAQLAVFTAASKN
notes: homodimer by crystal symmetry
- Km [6]: 2700 ± 210 µM
- kcat [6]: 5.657 ± 0.101 s⁻¹
- Km [7]: 1600 ± 70 µM
- kcat [7]: 2.495 ± 0.0868 s⁻¹
